We go through 8 compounds from patent US8497278B2, “Imidazo[1,2-a]pyridine compounds” (priority 2008, dated 2013).

Test [1] has as its target T1, α2 subtype containing GABA-A receptors (Homo sapiens, UniProt P18507+P47869).
T1 construct: expressed in transfected cells; host or cells: Xenopus laevis oocytes, cRNA injected
As to the kind of experiment: Two-electrode voltage clamp electrophysiology in Xenopus oocytes, potentiation of GABA EC20 response, α2. In kind it is cell-based. To be noted: 100 nM compound; for activation at 0.1 µM: read-out: Percentage of potentiation alpha2. An outline of the steps: (§1)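 Compounds are tested at 100 nM, one per oocyte, against an EC20 GABA (60 μM) response in human α1-, α2-, α3- or α5-β3-γ2L receptors clamped at −80 mV. Oocytes showing rapid desensitization or weak chlordiazepoxide (1 μM) potentiation are excluded.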
On the technique in general: In two-electrode clamp one electrode senses voltage and the other passes current.

Test [2] relates to central benzodiazepine receptors. Description: Central benzodiazepine receptor binding (test of Speth et al.). To be noted: 1000 nM of the compound. Summed up:
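Radioligand binding by the Speth et al. method. Specific binding is total minus nonspecific binding, the latter measured with excess unlabelled ligand. Compounds screened at 1.0E-09, 1.0E-07 and 1.0E-05 M in single determination; values given as percent inhibition at 1000 nM compound.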

The subject of the next test is Swiss Webster (CFW) mice. Description: Four Plate Test (FPT). To be noted: mouse, 30 min before test, 2 min session. In kind it is in vivo. An excerpt: Four Plate Test (FPT) Protocol: The four plate test (FPT) is an animal model of anxiety in which simple ongoing behavior (exploration of novel surroundings) is suppressed by the delivery of mild electric foot-shock contingent to quadrant crossing (Aron, et al., 1971). Clinically effective classes of anxiolytic compounds such as benzodiazepines, selective serotonin reuptake inhibitors, or 5-HT1A receptor agonists produce a marked anti-punishment effect (an increase in punished crossings), which is thought to indicate anxiolytic activity (Aron, et al., 1971; Bourin, et al., 1992; Hascoet, et al., 2000; Ring, et al., 2006). The four plate apparatus (Bioseb, Chaville France) consists of a cage (18×25×16 cm) floored by four identical rectangular metal plates (8×11 cm) separated from one another by a gap of 4 mm. The plates are connected to a shocker unit that can generate electric foot shocks.
Male Swiss Webster (CFW) mice from Charles River (Wilmington, Mass.) were used for the FPT. Mice were received at 3-weeks of age. Upon receipt, mice were assigned unique identification numbers (tail marked) and were group housed with 4 mice per cage in mouse ventilated racks. All animals remained housed in groups of four during the remainder of the study. All mice were acclimated to the colony room for at least one week prior to testing and were subsequently tested at an average age of 4 weeks of age. During the period of acclimation, mice […] were examined on a regular basis, handled, and weighed to assure adequate healtH, D and suitability. Animals were maintained on a 12/12 light/dark cycle. The room temperature was maintained between 20 and 23° C. with a relative humidity maintained between 30% and 70%. Chow and water were provided ad libitum for the duration of the study. In each test, animals were randomly assigned across treatment groups. Alprazolam (0.3 mg/kg) was used as the positive control. Compounds of the present invention, vehicle (45% hydroxypropyl beta-cyclodextrin) and alprazolam were administered orally to all groups (n=10 mice per group) 30 minutes prior to behavioral testing. Following pretreatment, mice were gently placed in the four plate chamber and allowed to explore the enclosure for 18 seconds. After the exploration period, every time the mouse crossed from one plate to another, the experimenter, blind to the dosing conditions, administered a mild electric foot-shock, and referred to as a punished crossing. The intensity and duration of the foot-shock were 0.5 mA for 0.5 seconds. The number of punished crossings was recorded during the 2 min test session. The plates were thoroughly cleaned with 70% ethanol immediately after each mouse. All data were analyzed using an analysis of variance (ANOVA) followed by Fisher's PLSD post hoc test. An effect was considered significance if p<0.05. Statistical outliers above or below 2 standard deviations from the mean in any of the […] were removed from the final analysis.

For test [3], the target named is T2, α1 subtype containing GABA-A receptors (Homo sapiens, UniProt P14867+P18507).
T2 construct: expressed in transfected cells; host or cells: Xenopus laevis oocytes, cRNA injected
T2 sequence (P14867 28-456): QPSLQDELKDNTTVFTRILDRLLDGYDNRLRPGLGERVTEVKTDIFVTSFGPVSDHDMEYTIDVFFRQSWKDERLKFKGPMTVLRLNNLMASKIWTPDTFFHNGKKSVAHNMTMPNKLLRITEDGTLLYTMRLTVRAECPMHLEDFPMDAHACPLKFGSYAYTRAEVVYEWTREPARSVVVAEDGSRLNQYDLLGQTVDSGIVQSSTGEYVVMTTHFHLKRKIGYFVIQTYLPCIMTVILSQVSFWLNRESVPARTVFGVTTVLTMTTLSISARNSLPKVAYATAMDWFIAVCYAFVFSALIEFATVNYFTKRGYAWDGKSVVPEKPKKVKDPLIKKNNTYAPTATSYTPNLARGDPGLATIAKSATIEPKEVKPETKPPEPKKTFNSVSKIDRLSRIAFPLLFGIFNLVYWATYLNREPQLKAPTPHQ
T2 sequence (P28472 26-473 partner): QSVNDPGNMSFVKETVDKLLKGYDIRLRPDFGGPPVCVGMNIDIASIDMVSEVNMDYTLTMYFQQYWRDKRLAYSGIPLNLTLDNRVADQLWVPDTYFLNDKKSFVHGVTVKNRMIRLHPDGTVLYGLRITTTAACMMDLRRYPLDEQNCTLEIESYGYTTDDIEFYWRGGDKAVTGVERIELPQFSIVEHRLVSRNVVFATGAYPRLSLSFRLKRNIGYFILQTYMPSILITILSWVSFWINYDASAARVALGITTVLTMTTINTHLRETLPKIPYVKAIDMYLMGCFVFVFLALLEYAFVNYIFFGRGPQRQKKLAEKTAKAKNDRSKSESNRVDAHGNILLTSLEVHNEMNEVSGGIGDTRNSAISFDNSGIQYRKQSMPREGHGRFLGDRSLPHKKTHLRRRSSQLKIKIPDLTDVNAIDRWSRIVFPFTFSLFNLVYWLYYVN
T2 sequence (P18507 40-475): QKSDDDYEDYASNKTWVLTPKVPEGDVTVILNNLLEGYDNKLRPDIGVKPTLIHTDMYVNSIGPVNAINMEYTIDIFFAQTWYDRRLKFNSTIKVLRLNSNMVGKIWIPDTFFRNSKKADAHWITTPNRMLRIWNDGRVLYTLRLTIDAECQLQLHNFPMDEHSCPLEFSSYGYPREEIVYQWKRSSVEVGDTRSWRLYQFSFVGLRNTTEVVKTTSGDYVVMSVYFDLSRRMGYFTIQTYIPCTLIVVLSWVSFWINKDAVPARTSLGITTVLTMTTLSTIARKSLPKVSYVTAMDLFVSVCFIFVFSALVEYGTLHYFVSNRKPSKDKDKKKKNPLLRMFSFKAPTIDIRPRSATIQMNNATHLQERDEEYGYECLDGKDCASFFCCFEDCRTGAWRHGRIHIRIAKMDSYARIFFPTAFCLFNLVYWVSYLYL
Description: Two-electrode voltage clamp electrophysiology in Xenopus oocytes, potentiation of GABA EC20 response, α1. In kind it is cell-based. To be noted: 100 nM compound; for activation at 0.1 µM: read-out: Percentage of potentiation alpha1. An outline of the steps:
as §1

The target of test [4] is T3, α3 subtype containing GABA-A receptors (Homo sapiens, UniProt P18507+P34903).
T3 construct: expressed in transfected cells; host or cells: Xenopus laevis oocytes, cRNA injected
T3 sequence (P34903 29-492): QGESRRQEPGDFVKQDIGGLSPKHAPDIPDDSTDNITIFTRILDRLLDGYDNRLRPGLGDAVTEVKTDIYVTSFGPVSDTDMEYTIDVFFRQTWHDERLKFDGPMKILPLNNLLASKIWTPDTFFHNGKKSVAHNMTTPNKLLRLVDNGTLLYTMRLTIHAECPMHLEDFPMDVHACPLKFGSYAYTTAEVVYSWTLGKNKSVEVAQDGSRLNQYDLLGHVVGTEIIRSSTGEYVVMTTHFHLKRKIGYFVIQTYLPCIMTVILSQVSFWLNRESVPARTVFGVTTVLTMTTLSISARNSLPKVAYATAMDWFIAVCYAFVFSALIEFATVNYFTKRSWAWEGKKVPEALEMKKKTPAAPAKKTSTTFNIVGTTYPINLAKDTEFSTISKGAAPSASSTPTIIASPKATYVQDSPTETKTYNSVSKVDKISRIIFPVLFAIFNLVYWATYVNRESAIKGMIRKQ
T3 sequence (P28472 26-473 partner): as the sequence (P28472 26-473 partner) above
T3 sequence (P18507 40-475): as the sequence (P18507 40-475) above
Description: Two-electrode voltage clamp electrophysiology in Xenopus oocytes, potentiation of GABA EC20 response, α3. To be noted: 100 nM compound; for activation at 0.1 µM: read-out: Percentage of potentiation alpha3. In kind it is cell-based. On the procedure: (§2) Electrophysiology protocol: Oocytes were prepared from adult female Xenopus laevis frogs. cRNA encoding human α1, α2, α3, α5, β3 and γ2L GABAA receptor subunits was injected into the cytoplasm of stage 5 or 6 oocytes using the Robocyte Robot (Multi Channel Systems, Reutlingen, Germany). Two-electrode voltage clamp recordings were made in 96-well plates using the Robocyte Robot. Oocytes were impaled using recording heads with two glass electrodes containing 1.5 M potassium acetate and 0.5 M KCl and held at a membrane potential of −80 mV. Oocytes were continually perfused with a ND96 solution (96 mM NaCl, 2 mM KCl, 0.1 mM CaCl2, and 5 mM HEPES, pH 7.5) using a Gilson 222 XL Liquid Handler and Gilson Minipuls 3 Peristaltic Pump (Gilson Medical Electronics, Middleton, Wis., USA). The protocol consisted of three 20-s applications of GABA that gave a 20% of the maximum response (EC20: 60 μM) to allow for headroom to determine a baseline GABA response. To assess the potentiation, oocytes were first exposed to a single 1 μM chlordiazepoxide (CDP) as a potentiation standard. Oocytes with insufficient expression levels (currents below threshold) or insufficient γ2L subunit incorporation (judged by rapid desensitization upon GABA application, or by insufficient potentiation by CDP) were not included in analysis. Following this control application, a given oocyte was exposed to test compounds at 100 nM concentrations. Only one concentration of one compound was tested per oocyte. […] One skilled in the art will recognize that subtypes contribute to the effects of GABA-A modulators. Such that compounds favoring different subtypes can have different therapeutic effects. The magnitude of modulation, for example, partial modulators can influence the effects in vivo. “++” indicates a greater modulation that “+” so that at any given subtype “++” inducates a greater amount of modulation for that subtype. In some embodiments, modulation favoring alpha 1 relative to alpha2 and/or alpha 3 can have sedative hypnotic effects. In other embodiments, compounds with reduced selectivity of alpha 1 can express anxiolytic effects with less sedation. Compounds with selectivity for alpha 5 can have memory/cognition enhancing effects.

Test [5] has as its target T4, α5 subtype containing GABA-A receptors (Homo sapiens, UniProt P18507+P31644).
T4 construct: expressed in transfected cells; host or cells: Xenopus laevis oocytes, cRNA injected
Description: Two-electrode voltage clamp electrophysiology in Xenopus oocytes, potentiation of GABA EC20 response, α5. In kind it is cell-based. The conditions noted are these: 100 nM compound. On the procedure: as §2

T1 sequence (P47869 29-451): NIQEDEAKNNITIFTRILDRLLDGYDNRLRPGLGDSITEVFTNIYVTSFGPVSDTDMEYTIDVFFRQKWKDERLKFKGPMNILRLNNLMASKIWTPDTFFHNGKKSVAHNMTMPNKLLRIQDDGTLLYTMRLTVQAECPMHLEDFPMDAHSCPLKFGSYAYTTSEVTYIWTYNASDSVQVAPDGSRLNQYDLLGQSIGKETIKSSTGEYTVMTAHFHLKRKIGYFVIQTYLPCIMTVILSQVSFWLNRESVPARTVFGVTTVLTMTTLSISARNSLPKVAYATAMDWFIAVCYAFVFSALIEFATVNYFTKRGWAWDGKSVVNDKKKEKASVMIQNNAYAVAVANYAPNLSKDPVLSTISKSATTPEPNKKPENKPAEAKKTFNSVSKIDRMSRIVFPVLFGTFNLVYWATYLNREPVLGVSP
T1 sequence (P28472 26-473 partner): as the sequence (P28472 26-473 partner) above
T1 sequence (P18507 40-475): as the sequence (P18507 40-475) above
T4 sequence (P31644 32-462): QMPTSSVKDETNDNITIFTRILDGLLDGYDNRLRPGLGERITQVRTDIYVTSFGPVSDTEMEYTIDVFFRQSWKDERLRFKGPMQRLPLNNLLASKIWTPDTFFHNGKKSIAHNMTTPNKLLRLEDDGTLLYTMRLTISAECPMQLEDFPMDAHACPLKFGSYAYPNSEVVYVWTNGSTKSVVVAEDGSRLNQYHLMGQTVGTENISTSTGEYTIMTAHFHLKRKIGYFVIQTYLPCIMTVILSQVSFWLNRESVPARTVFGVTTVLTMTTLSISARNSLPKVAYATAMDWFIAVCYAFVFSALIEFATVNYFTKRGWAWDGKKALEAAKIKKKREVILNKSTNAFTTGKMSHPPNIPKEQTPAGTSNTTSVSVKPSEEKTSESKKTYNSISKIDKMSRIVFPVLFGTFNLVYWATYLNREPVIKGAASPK
T4 sequence (P28472 26-473 partner): as the sequence (P28472 26-473 partner) above
T4 sequence (P18507 40-475): as the sequence (P18507 40-475) above

On to `Fc1ccc(-c2nc3ccc(F)cn3c2Cn2nccn2)cc1` [Compound 60, 3-((2H-1,2,3-triazol-2-yl)methyl)-6-fluoro-2-(4-fluorophenyl)H-imidazo[1,2-a]pyridine], for which the “Percentage of potentiation alpha2” value in test [1] was “+ (percentage of potentiation is greater than or equal to 10% but less than 50% in the presence of 100 nM of the compound)”. The “% Inhibition at 1000 nM for CBZD” value in test [2] is “++ (percentage of inhibition of central BZD site binding is greater than 80% in the presence of 1000 nM of the compound)”. The “Number of Punished Crossings Mean ± S.E.M.” value in the test with Swiss Webster (CFW) mice (3 mg/kg PO) is on record as 6.3 ± 0.45; in the test with Swiss Webster (CFW) mice (10 mg/kg PO), 6.3 ± 0.70; with Swiss Webster (CFW) mice (30 mg/kg PO) it was 6.0 ± 0.30. Further, the “Percentage of potentiation alpha1” value in test [3] is listed as 0 (percentage of potentiation is between about 10% to about −10%).

For the compound `Fc1ccc(-c2nc3ccc(F)cn3c2Cn2ccnn2)cc1` [Compound 61, 3-((1H-1,2,3-triazol-1-yl)methyl)-6-fluoro-2-(4-fluorophenyl)H-imidazo[1,2-a]pyridine], in test [1], the “Percentage of potentiation alpha2” value is on record as “+ (percentage of potentiation is greater than or equal to 10% but less than 50% in the presence of 100 nM of the compound)”. Besides, in test [2], the “% Inhibition at 1000 nM for CBZD” value was “++ (percentage of inhibition of central BZD site binding is greater than 80% in the presence of 1000 nM of the compound)”. For the same compound, in test [3], the “Percentage of potentiation alpha1” value is “+ (percentage of potentiation is greater than or equal to 10% but less than 50% in the presence of 100 nM of the compound)”. Moreover, the “Percentage of potentiation alpha3” value in test [4] was “++ (percentage of potentiation is greater than or equal to 50% in the presence of 100 nM of the compound)”.

Take `NC(=O)c1nccn1Cc1c(-c2ccc(Cl)cc2)nc2ccccn12` [Compound 76, 1-((2-(4-chlorophenyl)H-imidazo[1,2-a]pyridin-3-yl)methyl)-1H-imidazole-2-carboxamide]: in test [1], the “Percentage of potentiation alpha2” value is reported as “+ (percentage of potentiation is greater than or equal to 10% but less than 50% in the presence of 100 nM of the compound)”. Also, in test [2], the “% Inhibition at 1000 nM for CBZD” value was “++ (percentage of inhibition of central BZD site binding is greater than 80% in the presence of 1000 nM of the compound)”. Besides, the results for the “Number of Punished Crossings Mean ± S.E.M.” value in the test on Swiss Webster (CFW) mice (3 mg/kg PO), in the test on Swiss Webster (CFW) mice (10 mg/kg PO) and with Swiss Webster (CFW) mice (30 mg/kg PO) were 6.7 ± 0.45, 6.9 ± 0.35 and 6.3 ± 0.62, respectively. The “Percentage of potentiation alpha1” value in test [3] was 0 (percentage of potentiation is between about 10% to about −10%).

For `COC1=CC(=O)N(Cc2c(-c3ccc(Cl)cc3)nc3ccc(Cl)cn23)C1` [Compound 114, 1-((6-chloro-2-(4-chlorophenyl)H-imidazo[1,2-a]pyridin-3-yl)methyl)-4-methoxy-1H-pyrrol-2(5H)-one], the “Percentage of potentiation alpha2” value in test [1] is recorded as “+ (percentage of potentiation is greater than or equal to 10% but less than 50% in the presence of 100 nM of the compound)”. In addition, the “Percentage of potentiation alpha1” value in test [3] is “++ (percentage of potentiation is greater than or equal to 50% in the presence of 100 nM of the compound)”. Further, the “Percentage of potentiation alpha5” value in test [5] was 0 (percentage of potentiation is between about 10% to about −10%). Also, the “Percentage of potentiation alpha3” value in test [4] was “+ (percentage of potentiation is greater than or equal to 10% but less than 50% in the presence of 100 nM of the compound)”.

As to `CN1CC[C@@H](Oc2ccnc(NCc3c(-c4ccc(F)cc4)nc4ccc(Cl)cn34)n2)C1` [Compound 183, (R)—N-((6-chloro-2-(4-fluorophenyl)imidazo[1,2-a]pyridin-3-yl)methyl)-4-(1-methylpyrrolidin-3-yloxy)pyrimidin-2-amine], the results for the activation at 0.1 µM in test [1], in test [3] and in test [4] were not below 50%, not below 50% and -10 to 10%, respectively. Moreover, the “% Inhibition at 1000 nM for CBZD” value in test [2] is recorded as “++ (percentage of inhibition of central BZD site binding is greater than 80% in the presence of 1000 nM of the compound)”.

Regarding `NNC(=O)c1nc(Cc2c(-c3ccc(Cl)cc3)nc3ccc(F)cn23)no1` [Compound 216, 3-((2-(4-chlorophenyl)-6-fluoroimidazo[1,2-a]pyridin-3-yl)methyl)-1,2,4-oxadiazole-5-carbohydrazide], the activation at 0.1 µM in test [1] is not below 50%; in test [3], 10 to 50%; in test [5] (read-out: Percentage of potentiation alpha5), -10 to 10%; in test [4], 10 to 50%.

In the case of `CNC(=O)c1nc(Cc2c(-c3ccc(F)cc3)nc3ccc(F)cn23)no1` [Compound 220, 3-((2-(4-fluorophenyl)-6-fluoroimidazo[1,2-a]pyridin-3-yl)methyl)-1,2,4-oxadiazole-5-N-methyl-carboxamide], the “Percentage of potentiation alpha2” value in test [1] is reported as “+ (percentage of potentiation is greater than or equal to 10% but less than 50% in the presence of 100 nM of the compound)”. Moreover, the “Percentage of potentiation alpha1” value in test [3] is listed as 0 (percentage of potentiation is between about 10% to about −10%). For the same compound, the “Percentage of potentiation alpha5” value in test [5] was 0 (percentage of potentiation is between about 10% to about −10%). In test [4], the “Percentage of potentiation alpha3” value is 0 (percentage of potentiation is between about 10% to about −10%).

For the compound `CN(C)CCNC1=CC(=O)N(Cc2c(-c3ccc(Br)cc3)nc3ccccn23)C1` [Compound 242, 1-((2-(4-bromophenyl)imidazo[1,2-a]pyridin-3-yl)methyl)-4-(2-(dimethylamino)ethylamino)-1H-pyrrol-2(5H)-one], the figures for the activation at 0.1 µM in test [1], in test [3] and in test [4] were 10 to 50%, 10 to 50% and -10 to 10%, respectively. Besides, the “% Inhibition at 1000 nM for CBZD” value in test [2] is recorded as “++ (percentage of inhibition of central BZD site binding is greater than 80% in the presence of 1000 nM of the compound)”.
